How the values were obtained:
[1] = biological target: Phosphatidylinositol 4,5-bisphosphate 3-kinase catalytic subunit gamma isoform (Homo sapiens, UniProt P48736); assay: Inhibition of PI3K gamma
[2] = biological target: Tyrosine-protein kinase ABL1 (Homo sapiens) (UniProt P00519); assay: Percent residual Abl activity in the presence of 10uM inhibitor
[3] = biological target: cAMP-dependent protein kinase (PKA) (Homo sapiens, UniProt P22694+P17612+P22612); assay: Inhibition of PKA; assay type: protein assay
[4] = biological target: Vascular endothelial growth factor receptor 2 (Homo sapiens) (UniProt P35968); assay: Percent residual KDR activity in the presence of 10uM inhibitor
Chain of Vascular endothelial growth factor receptor 2 (Homo sapiens) (P35968 whole entry): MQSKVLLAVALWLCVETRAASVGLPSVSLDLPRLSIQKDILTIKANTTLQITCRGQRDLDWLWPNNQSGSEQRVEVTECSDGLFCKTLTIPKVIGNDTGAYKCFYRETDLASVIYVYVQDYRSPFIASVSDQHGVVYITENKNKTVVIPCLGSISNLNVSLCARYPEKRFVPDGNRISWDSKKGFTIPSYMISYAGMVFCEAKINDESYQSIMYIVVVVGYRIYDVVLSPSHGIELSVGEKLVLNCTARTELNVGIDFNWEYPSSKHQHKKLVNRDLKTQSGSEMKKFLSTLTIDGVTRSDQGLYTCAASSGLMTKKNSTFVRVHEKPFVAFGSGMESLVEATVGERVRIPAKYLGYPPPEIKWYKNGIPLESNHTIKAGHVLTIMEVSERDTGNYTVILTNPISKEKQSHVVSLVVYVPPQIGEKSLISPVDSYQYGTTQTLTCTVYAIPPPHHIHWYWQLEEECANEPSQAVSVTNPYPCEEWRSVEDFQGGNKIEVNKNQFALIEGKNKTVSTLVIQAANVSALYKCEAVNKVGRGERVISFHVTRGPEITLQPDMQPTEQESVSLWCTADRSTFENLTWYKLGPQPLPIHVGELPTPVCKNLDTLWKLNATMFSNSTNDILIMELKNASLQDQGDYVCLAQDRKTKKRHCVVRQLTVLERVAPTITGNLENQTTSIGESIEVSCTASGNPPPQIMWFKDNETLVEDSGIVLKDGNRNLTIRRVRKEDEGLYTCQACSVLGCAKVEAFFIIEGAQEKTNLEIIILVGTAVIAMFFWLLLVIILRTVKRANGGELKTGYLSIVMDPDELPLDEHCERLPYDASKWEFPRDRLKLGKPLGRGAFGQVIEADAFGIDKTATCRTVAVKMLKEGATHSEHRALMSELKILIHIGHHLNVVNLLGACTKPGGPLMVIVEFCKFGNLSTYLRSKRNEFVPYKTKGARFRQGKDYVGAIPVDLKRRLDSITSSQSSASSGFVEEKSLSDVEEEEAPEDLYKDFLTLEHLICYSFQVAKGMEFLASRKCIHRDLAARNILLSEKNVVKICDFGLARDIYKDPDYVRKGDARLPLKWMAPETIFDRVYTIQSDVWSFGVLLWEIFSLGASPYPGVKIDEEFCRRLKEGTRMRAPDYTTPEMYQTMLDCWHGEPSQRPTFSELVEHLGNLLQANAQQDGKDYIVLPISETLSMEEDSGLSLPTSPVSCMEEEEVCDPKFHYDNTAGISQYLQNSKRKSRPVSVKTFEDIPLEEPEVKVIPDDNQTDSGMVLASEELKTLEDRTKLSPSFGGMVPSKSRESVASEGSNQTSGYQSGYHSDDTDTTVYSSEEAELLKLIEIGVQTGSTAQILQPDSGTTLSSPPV

[5] = biological target: Dual specificity tyrosine-phosphorylation-regulated kinase 1A (Homo sapiens, UniProt Q13627); assay: Inhibition of DYRK1a
[6] = biological target: Vascular endothelial growth factor receptor 3 (Homo sapiens) (UniProt P35916); assay: Percent residual Flt-4 activity in the presence of 10uM inhibitor
Chain of Vascular endothelial growth factor receptor 3 (Homo sapiens) (P35916 whole entry): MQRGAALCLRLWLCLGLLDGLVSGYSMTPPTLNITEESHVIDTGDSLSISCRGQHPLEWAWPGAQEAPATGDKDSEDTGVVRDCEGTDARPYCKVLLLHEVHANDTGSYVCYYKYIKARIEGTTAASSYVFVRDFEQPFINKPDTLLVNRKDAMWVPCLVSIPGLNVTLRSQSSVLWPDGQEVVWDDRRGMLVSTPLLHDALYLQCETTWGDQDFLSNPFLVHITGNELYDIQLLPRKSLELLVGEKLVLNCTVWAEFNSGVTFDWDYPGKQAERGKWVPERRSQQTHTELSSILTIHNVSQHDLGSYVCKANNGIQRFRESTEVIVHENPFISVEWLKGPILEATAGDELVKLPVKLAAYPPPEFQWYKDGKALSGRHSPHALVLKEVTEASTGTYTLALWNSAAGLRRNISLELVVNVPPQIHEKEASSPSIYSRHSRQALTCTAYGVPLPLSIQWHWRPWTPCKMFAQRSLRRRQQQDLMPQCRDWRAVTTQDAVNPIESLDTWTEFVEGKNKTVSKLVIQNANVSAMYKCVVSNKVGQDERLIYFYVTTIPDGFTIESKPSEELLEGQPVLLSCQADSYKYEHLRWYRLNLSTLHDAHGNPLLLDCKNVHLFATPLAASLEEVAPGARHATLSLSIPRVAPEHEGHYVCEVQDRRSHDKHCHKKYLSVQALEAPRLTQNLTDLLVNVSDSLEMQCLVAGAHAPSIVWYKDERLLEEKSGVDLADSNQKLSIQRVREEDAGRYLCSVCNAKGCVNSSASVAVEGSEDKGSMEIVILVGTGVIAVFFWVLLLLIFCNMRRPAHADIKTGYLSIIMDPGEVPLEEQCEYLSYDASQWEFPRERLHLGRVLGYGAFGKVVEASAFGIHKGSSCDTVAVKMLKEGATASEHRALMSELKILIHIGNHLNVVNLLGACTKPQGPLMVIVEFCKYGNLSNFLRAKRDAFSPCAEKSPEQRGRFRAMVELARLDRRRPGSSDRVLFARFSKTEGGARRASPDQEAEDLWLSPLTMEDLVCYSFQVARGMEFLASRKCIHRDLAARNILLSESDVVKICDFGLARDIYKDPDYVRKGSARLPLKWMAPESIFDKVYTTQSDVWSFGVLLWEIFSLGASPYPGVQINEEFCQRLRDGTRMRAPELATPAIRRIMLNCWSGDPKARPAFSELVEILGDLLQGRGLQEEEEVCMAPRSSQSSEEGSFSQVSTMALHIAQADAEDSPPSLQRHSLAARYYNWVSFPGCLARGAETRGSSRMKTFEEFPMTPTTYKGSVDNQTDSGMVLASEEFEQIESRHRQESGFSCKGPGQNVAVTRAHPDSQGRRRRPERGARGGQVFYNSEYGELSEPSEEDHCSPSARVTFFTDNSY

Chain of Phosphatidylinositol 4,5-bisphosphate 3-kinase catalytic subunit gamma isoform (P48736 whole entry, canonical isoform): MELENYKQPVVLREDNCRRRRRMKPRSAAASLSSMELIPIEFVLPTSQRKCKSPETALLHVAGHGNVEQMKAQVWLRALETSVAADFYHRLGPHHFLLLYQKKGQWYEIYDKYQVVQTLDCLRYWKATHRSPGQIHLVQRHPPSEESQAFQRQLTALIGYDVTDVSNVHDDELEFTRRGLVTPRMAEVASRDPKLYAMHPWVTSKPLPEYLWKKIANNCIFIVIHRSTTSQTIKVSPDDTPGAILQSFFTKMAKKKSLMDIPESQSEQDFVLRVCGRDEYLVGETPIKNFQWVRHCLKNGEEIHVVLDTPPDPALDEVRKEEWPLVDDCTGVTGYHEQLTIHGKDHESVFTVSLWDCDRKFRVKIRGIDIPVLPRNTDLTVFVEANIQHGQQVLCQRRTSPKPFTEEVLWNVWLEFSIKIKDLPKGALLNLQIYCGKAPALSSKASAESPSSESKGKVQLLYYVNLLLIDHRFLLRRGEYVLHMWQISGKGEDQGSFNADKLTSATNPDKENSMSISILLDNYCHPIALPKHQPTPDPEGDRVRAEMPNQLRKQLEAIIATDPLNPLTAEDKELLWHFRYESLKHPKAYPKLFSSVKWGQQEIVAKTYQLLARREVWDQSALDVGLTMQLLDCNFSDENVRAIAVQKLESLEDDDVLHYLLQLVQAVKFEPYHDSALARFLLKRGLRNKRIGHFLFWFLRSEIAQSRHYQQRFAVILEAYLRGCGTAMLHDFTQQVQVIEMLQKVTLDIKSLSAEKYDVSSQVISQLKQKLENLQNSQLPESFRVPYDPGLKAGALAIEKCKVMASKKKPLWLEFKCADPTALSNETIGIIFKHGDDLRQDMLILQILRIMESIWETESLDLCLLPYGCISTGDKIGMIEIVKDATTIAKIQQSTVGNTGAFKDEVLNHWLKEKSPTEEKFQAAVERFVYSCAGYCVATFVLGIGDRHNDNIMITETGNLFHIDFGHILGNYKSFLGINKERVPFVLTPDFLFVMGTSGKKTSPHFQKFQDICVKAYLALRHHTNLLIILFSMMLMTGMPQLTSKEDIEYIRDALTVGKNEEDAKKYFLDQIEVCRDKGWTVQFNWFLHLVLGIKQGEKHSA
Chain of Tyrosine-protein kinase ABL1 (Homo sapiens) (P00519 whole entry): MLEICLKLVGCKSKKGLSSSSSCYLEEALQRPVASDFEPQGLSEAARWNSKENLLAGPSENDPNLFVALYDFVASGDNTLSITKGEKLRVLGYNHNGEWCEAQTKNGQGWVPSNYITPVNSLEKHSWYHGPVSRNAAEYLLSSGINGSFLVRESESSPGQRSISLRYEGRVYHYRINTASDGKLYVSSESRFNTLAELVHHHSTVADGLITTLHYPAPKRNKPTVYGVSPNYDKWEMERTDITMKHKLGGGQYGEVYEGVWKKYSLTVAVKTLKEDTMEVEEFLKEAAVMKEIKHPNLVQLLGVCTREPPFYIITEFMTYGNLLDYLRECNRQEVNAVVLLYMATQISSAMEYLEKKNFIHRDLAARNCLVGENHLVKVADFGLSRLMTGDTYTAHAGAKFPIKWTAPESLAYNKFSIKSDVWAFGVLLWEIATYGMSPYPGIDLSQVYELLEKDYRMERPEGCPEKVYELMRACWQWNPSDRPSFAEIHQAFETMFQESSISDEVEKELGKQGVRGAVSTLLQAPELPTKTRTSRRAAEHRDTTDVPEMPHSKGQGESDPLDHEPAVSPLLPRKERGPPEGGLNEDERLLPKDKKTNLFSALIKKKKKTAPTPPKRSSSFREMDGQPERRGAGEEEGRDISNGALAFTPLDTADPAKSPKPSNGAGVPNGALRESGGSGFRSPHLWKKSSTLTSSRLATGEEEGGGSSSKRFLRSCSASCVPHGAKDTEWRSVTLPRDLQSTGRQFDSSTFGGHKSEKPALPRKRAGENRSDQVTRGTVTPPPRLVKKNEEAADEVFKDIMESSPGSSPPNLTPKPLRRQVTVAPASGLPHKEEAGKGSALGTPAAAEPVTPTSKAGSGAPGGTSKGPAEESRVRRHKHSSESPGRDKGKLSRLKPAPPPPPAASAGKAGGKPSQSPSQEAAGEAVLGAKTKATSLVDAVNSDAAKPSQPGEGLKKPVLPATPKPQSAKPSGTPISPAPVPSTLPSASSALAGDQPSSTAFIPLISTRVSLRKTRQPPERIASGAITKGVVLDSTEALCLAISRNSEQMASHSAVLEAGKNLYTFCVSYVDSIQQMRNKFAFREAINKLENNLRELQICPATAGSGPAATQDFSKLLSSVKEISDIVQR

IC50 [1]: > 200 µM
Activity [2]: 80%
IC50 [3]: 16 µM
Activity [4]: 80%
IC50 [5]: 8 µM
Activity [6]: 80%
SMILES: O=C(O)Cc1c2ccccc2n2c1[nH]c(=O)c1ccccc12
